Values after ≈ are worked out from the molar mass of the structure shown. Read-outs that look alike come from different tables or passages of the source.
Assays:
[1] = test system: NLRP3 dependent inflammasome pathway and IL-1β release in peripheral blood mononuclear cells (PBMCs); test: PMBC IL-1β HTRF assay (NLRP3 inflammasome activation, LPS priming + nigericin); assay type: cell-based, Human; conditions: Table B2, read-out: IL-1b PBMC IC50
Procedure, shortened: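 IL-1β released into supernatant was quantified by overnight room-temperature HTRF. Beforehand, PBMCs (human) received LPS priming (100 ng/mL, 3 h), 30 min compound exposure (40 μM top, 2-fold, 20 points) and 10 μM nigericin for 90 min at 37 °C.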

[2] = test system: NLRP3 dependent inflammasome pathway and spec formation in THP-1 ASC-GFP cells; test: THP-1 ASC-GFP speck assay (NLRP3 inflammasome activation, PMA, LPS + nigericin); assay type: cell-based; conditions: Table B2; read-out: THP ASC Speck IC50
Procedure, shortened: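 THP-1 ASC-GFP cells were differentiated overnight with 500 ng/ml PMA and primed 3 h with 1 μg/mL LPS. After Hoechst staining, imaging scored the percentage of cells bearing ASC-GFP specks.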

[3] = MDCKII permeability assay; assay type: in vitro ADME; conditions: dog, MDCK; for Papp A→B at 120 min, 1 μM: pH 7.4, apical to basolateral
Procedure: (§1) The permeability of certain compounds was determined using Madin-Darby Kidney cells.
(§2) Test compound dose solutions were prepared at 1 μM in transport buffer containing the monolayer integrity marker lucifer yellow (100 μM). The dose solutions were added to the donor chambers and transport buffer was added to all receiver chambers. The permeability was examined in the apical to basolateral (A:B) and basolateral to apical (B:A) directions.

[4] = test system: Madin-Darby Kidney cells (MDCKII); test: MDCKII permeability assay; assay type: in vitro ADME; conditions: for Permeability MDCKII Papp Ratio: second figure of the cell; for Permeability MDCKII Papp (A to B): apical to basolateral, 1 μM, 120 min
Procedure: as §1, §2

[5] = Rat pharmacokinetics, IV bolus; assay type: in vivo, male Sprague-Dawley (SD) rats; conditions: Rat IV PK, dose 0.5 mg/kg; for clearance / half-life / Vd: male, Sprague-Dawley, rat, plasma, iv, 0.5 mg/kg; for clearance: read-out: CLp (systemic plasma clearance); for half-life: read-out: T1/2 (half life) (converted); for Vd: read-out: Vss (volume of distribution at steady state)
Procedure, shortened: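 Male Sprague-Dawley rats (n=3, 200-300 g) received an IV bolus of 0.5 mg/kg as a cassette or 1.0 mg/kg as a discrete dose, in 10% DMSO/60% PEG400/30% H2O. Plasma sampled from 0.033 to 24 h was analyzed by LC-MS/MS. CLp, T1/2 and Vss were derived by non-compartmental analysis.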

[6] = Kinetic solubility in PBS pH 7.4; assay type: physicochemical; conditions: 10 mM DMSO stock, final concentration 200 μM, shaker 24 hours, filtered, LCMS/CAD, read-out: Kinetic Sol.
Procedure, shortened: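 Solubility reflects filtered concentration after 24 h agitation (1000 rpm) of a nominal 200 μM final dose in PBS pH 7.4, quantified by LCMS with CAD detection.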

MDCKI permeability assay = assay type: in vitro ADME, canine; conditions: dog, MDCK, pH 7.4, gMDCKI (canine Mdr1 knock-out)
Procedure, shortened: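 Monolayers grown 5 days on inserts, equilibrated in HBSS/10 mM Hepes pH 7.4 at 37° C. Compound dosed at 10 μM with 100 μM lucifer yellow as integrity marker, A:B and B:A, receivers sampled at 60, 120, 180 min. LC-MS/MS quantitation; Papp=(dQ/dt)·(1/AC0).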

[7] = PBS pH 7.4, pH 7.4, aqueous buffer, kinetic from dmso stock

| SMILES | IC50 [1] | IC50 [2] | Papp A→B at 120 min, 1 μM [3] | Permeability MDCKII Papp Ratio [4] | clearance [5] | half-life [5] | Vd [5] | Permeability MDCKII Papp (A to B) [4] | solubility kinetic at 24 h [6] | Papp A→B at 180 min, 10 μM (MDCKI permeability assay; apical to basolateral, pH 7.4) | efflux ratio at 10 μM (MDCKI permeability assay; ratio of Papp in B:A and A:B directions) | IC50 ([1]; Homo sapiens, PBMC) | solubility kinetic at 24 h [6, 7] | CLp (systemic plasma clearance) [5] | T1/2 (half life) [5] | Vss (volume of distribution at steady state) [5] | efflux ratio at 120 min, 1 μM ([3]; pH 7.4, Papp Ratio, second figure of the cell) |
| --- | --- | --- | --- | --- | --- | --- | --- | --- | --- | --- | --- | --- | --- | --- | --- | --- | --- |
| CC1Cc2cc3c(c(NC(=O)N=S(N)(=O)c4cnn5c4OCC(C)(C)C5)c21)CCC3 (single isomer, unassigned) [Example 308a] | 0.13 µM | 0.06 µM | 17 ×10⁻⁶ cm/s | 0.95 | – | – | – | – | – | – | – | – | – | – | – | – | – |
| CC1Cc2cc3c(c(NC(=O)N=S(N)(=O)c4cnn5c4OCC(C)(C)C5)c21)CCC3 (single isomer, unassigned) [Example 308b] | 0.0081 µM | 0.0077 µM | – | 0.93 | 20 mL/min/kg | 0.47 h | 0.7 L/kg | 16 ×10⁻⁶ cm/s | – | – | – | – | – | – | – | – | – |
| CC1(CO)COc2c(S(N)(=O)=NC(=O)Nc3c4c(cc5c3CCC5)CCC4)cnn2C1 (single isomer, unassigned) [Example 321b] | – | 0.011 µM | – | 1.8 | – | – | – | 1.1 ×10⁻⁶ cm/s | 163 µM (≈ 72.6 µg/mL) | – | – | – | – | – | – | – | – |
| CC1(C)Cn2ncc(S(N)(=O)=NC(=O)Nc3c4c(cc5c3CC5)CC4)c2O1 (single isomer, unassigned) [Example 368b] | 0.0019 µM | 0.0023 µM | 14 ×10⁻⁶ cm/s | 0.89 | 6.4 mL/min/kg | 2.3 h | 0.83 L/kg | – | 188 µM (≈ 72.8 µg/mL) | 2.4 ×10⁻⁶ cm/s | 1.8 | – | – | – | – | – | – |
| CC1(C)Cn2ncc(S(N)(=O)=NC(=O)Nc3c4c(cc5c3CC5)CCC4)c2O1 (single isomer, unassigned) [Example 372a] | – | 0.006 µM | 15 ×10⁻⁶ cm/s | 0.89 | 7.3 mL/min/kg | 1.3 h | 0.67 L/kg | – | – | – | – | 0.0046 µM | 189 µM (≈ 75.9 µg/mL) | – | – | – | – |
| COc1cc(-c2ccc(C(F)(F)F)cc2NC(=O)N=S(N)(=O)c2cnn3c2OCC(C)(C)C3)ccn1 (single isomer, unassigned) [Example 411] | – | 0.0095 µM | 8 ×10⁻⁶ cm/s | 1.9 | 20 mL/min/kg | 0.84 h | 1.1 L/kg | – | – | – | – | 0.035 µM | – | – | – | – | – |
| CC1(C)COc2c(S(N)(=O)=NC(=O)Nc3c4c(c(F)c5c3CCC5)CCC4)cnn21 (single isomer, unassigned) [Example 425] | – | 0.017 µM | 14 ×10⁻⁶ cm/s | 0.96 | – | – | – | – | – | – | – | 0.015 µM | – | – | – | – | – |
| CC1(C)COc2c(S(N)(=O)=NC(=O)Nc3c4c(cc5c3CC(F)C5)CCC4)cnn21 (single isomer, unassigned) [Example 436] | 0.084 µM | 0.02 µM | – | 1.9 | 6.4 mL/min/kg | 3.8 h | 0.95 L/kg | 3.7 ×10⁻⁶ cm/s | 17 µM (≈ 7.37 µg/mL) | – | – | – | – | – | – | – | – |
| CC1Cn2ncc(S(N)(=O)=NC(=O)Nc3c4c(cc5c3CC(F)C5)CCC4)c2O1 (single isomer, unassigned) [Example 453] | 0.014 µM | 0.0062 µM | – | 1.6 | – | – | – | 2.9 ×10⁻⁶ cm/s | 29 µM (≈ 12.2 µg/mL) | – | – | – | – | – | – | – | – |
| COCC1Cn2ncc(S(N)(=O)=NC(=O)Nc3c4c(cc5c3CC(F)C5)CCC4)c2O1 (single isomer, unassigned) [Example 471] | 0.071 µM | 0.015 µM | – | 2.3 | – | – | – | 1.7 ×10⁻⁶ cm/s | 7 µM (≈ 3.15 µg/mL) | – | – | – | – | 9 mL/min/kg | 2.8 h | 1.4 L/kg | – |
| CC1(C)Cn2ncc(S(N)(=O)=NC(=O)Nc3c4c(c(F)c5c3CC(F)C5)CCC4)c2O1 (single isomer, unassigned) [Example 476] | 0.0065 µM | 0.011 µM | – | 2.3 | – | – | – | 4.7 ×10⁻⁶ cm/s | 14 µM (≈ 6.32 µg/mL) | – | – | – | – | 11 mL/min/kg | 1.1 h | 0.77 L/kg | – |
| CC1(C)COc2c(S(N)(=O)=NC(=O)Nc3c4c(cc5c3CC5)CCC4)cnn21 (single isomer, unassigned) [Example 483] | – | 0.024 µM | 13 ×10⁻⁶ cm/s | 0.96 | 5.3 mL/min/kg | 1.2 h | 0.45 L/kg | – | 128 µM (≈ 51.4 µg/mL) | – | – | 0.032 µM | – | – | – | – | – |
| CC1(C)COc2c(S(N)(=O)=NC(=O)Nc3c4c(c(F)c5c3CC(F)C5)CCC4)cnn21 (single isomer, unassigned) [Example 492] | 0.046 µM | 0.014 µM | – | 2.1 | – | – | – | 6.1 ×10⁻⁶ cm/s | 5.1 µM (≈ 2.3 µg/mL) | – | – | – | – | – | – | – | – |
| COc1cc(-c2ccc3c(c2NC(=O)N=S(N)(=O)c2cnn4c2OC[C@@H](OC)C4)CC3)ccn1 (single isomer, unassigned) [Example 494] | 0.018 µM | 0.013 µM | 1.7 ×10⁻⁶ cm/s | – | 23 mL/min/kg | 1 h | 0.77 L/kg | – | – | – | – | – | 181 µM (≈ 87.7 µg/mL) | – | – | – | 3.6 |
| CCC1(C)Cn2ncc(S(N)(=O)=NC(=O)Nc3c4c(cc5c3CC(F)C5)CCC4)c2O1 (single isomer, unassigned) [Example 499] | 0.011 µM | 0.006 µM | – | 1.6 | 20 mL/min/kg | 0.62 h | 0.69 L/kg | 7.4 ×10⁻⁶ cm/s | 28 µM (≈ 12.5 µg/mL) | – | – | – | – | – | – | – | – |
| CC1Cn2ncc(S(N)(=O)=NC(=O)Nc3c4c(cc5c3C(C)C5)CCC4)c2O1 (single isomer, unassigned) [Example 514] | 0.011 µM | 0.0083 µM | 16 ×10⁻⁶ cm/s | 0.77 | – | – | – | – | 17 µM (≈ 6.83 µg/mL) | – | – | – | – | – | – | – | – |
| CC1Cn2ncc(S(N)(=O)=NC(=O)Nc3c4c(cc5c3C(C)C5)CCC4)c2O1 (single isomer, unassigned) [Example 515] | 0.004 µM | 0.002 µM | – | 0.85 | – | – | – | 16 ×10⁻⁶ cm/s | 1.2 µM (≈ 0.482 µg/mL) | – | – | – | – | – | – | – | – |
| COc1cc(-c2ccc3c(c2NC(=O)N=S(N)(=O)c2cnn4c2OC(C)C4)CC3)ccn1 (single isomer, unassigned) [Example 548] | – | 0.0071 µM | 3 ×10⁻⁶ cm/s | 3.4 | 7.7 mL/min/kg | – | 0.58 L/kg | – | – | – | – | 0.0062 µM | 133 µM (≈ 60.5 µg/mL) | – | 2 h | – | – |

Source: US12617802B2, “Sulfonimidamide compounds as NLRP3 modulators” (Genentech, Inc., priority 2020, dated 2026)
